In the NIST ThermoML archive (doi:10.1021/je300692s):
Numbers after ± are expanded uncertainties.

Test: activity coefficient (dimensionless); of the first substance listed, at infinite dilution; xn = mol fraction of the nth substance listed
Settings: 101 kPa, Liquid, Chromatography, x1 = 0

SMILES	activity coefficient (322.6 K)	activity coefficient (332.5 K)	activity coefficient (342.8 K)	activity coefficient (323 K)	activity coefficient (333 K)	activity coefficient (343.1 K)	activity coefficient (322.9 K)
CCC(=O)CC [pentan-3-one] + CCCCCCCCCC[N+]1(C)CCCC1.O=S(=O)([N-]S(=O)(=O)C(F)(F)F)C(F)(F)F	0.47 ± 0.05	0.48 ± 0.05	0.5 ± 0.06				
ClC(Cl)Cl [trichloromethane] + CCCCCCCCCC[N+]1(C)CCCC1.O=S(=O)([N-]S(=O)(=O)C(F)(F)F)C(F)(F)F	0.39 ± 0.05	0.39 ± 0.05	0.41 ± 0.05				
CC1CCCC1 [methylcyclopentane] + CCCCCCCCCC[N+]1(C)CCCC1.O=S(=O)([N-]S(=O)(=O)C(F)(F)F)C(F)(F)F	2.9 ± 0.3	2.76 ± 0.29	2.66 ± 0.28				
C=CCCCC [hex-1-ene] + CCCCCCCC[N+]1(C)CCCC1.O=S(=O)([N-]S(=O)(=O)C(F)(F)F)C(F)(F)F				3.17 ± 0.33	3.02 ± 0.32	2.58 ± 0.27	
C=CCCCC [hex-1-ene] + CCCCCCCCCC[N+]1(C)CCCC1.O=S(=O)([N-]S(=O)(=O)C(F)(F)F)C(F)(F)F	2.68 ± 0.28	2.62 ± 0.28	2.57 ± 0.27				
C#CCCCCC [1-heptyne] + CCCCCCCCCC[N+]1(C)CCCC1.O=S(=O)([N-]S(=O)(=O)C(F)(F)F)C(F)(F)F	1.81 ± 0.19	1.83 ± 0.19	1.83 ± 0.19				
CCCCCCCCC [nonane] + CCCCCC[N+]1(C)CCCC1.O=S(=O)([N-]S(=O)(=O)C(F)(F)F)C(F)(F)F					18.2 ± 1.9	18.5 ± 1.9	21.1 ± 2.2
CCC(C)=O [butanone] + CCCCCC[N+]1(C)CCCC1.O=S(=O)([N-]S(=O)(=O)C(F)(F)F)C(F)(F)F					0.42 ± 0.05	0.39 ± 0.05	0.42 ± 0.05
C1COCCO1 [1,4-dioxane] + CCCCCCCCCC[N+]1(C)CCCC1.O=S(=O)([N-]S(=O)(=O)C(F)(F)F)C(F)(F)F	0.38 ± 0.05	0.35 ± 0.04	0.38 ± 0.05				
CC1CCCC1 [methylcyclopentane] + CCCCCCCC[N+]1(C)CCCC1.O=S(=O)([N-]S(=O)(=O)C(F)(F)F)C(F)(F)F				3.13 ± 0.33	3.36 ± 0.35	2.84 ± 0.3	
Cc1cccc(C)c1 [1,3-dimethylbenzene] + CCCCCC[N+]1(C)CCCC1.O=S(=O)([N-]S(=O)(=O)C(F)(F)F)C(F)(F)F					1.39 ± 0.14	1.42 ± 0.15	1.28 ± 0.13
Cc1cccc(C)c1 [1,3-dimethylbenzene] + CCCCCCCC[N+]1(C)CCCC1.O=S(=O)([N-]S(=O)(=O)C(F)(F)F)C(F)(F)F				1 ± 0.1	0.84 ± 0.09	1.05 ± 0.11	
C#CCCCCC [1-heptyne] + CCCCCCCC[N+]1(C)CCCC1.O=S(=O)([N-]S(=O)(=O)C(F)(F)F)C(F)(F)F				1.94 ± 0.2	1.89 ± 0.2	1.9 ± 0.2	
CC(C)OC(C)C [diisopropyl ether] + CCCCCCCC[N+]1(C)CCCC1.O=S(=O)([N-]S(=O)(=O)C(F)(F)F)C(F)(F)F				2.57 ± 0.27	2.58 ± 0.27	2.26 ± 0.24	
CCc1ccccc1 [ethylbenzene] + CCCCCCCCCC[N+]1(C)CCCC1.O=S(=O)([N-]S(=O)(=O)C(F)(F)F)C(F)(F)F	1.01 ± 0.05	1.04 ± 0.06	1.06 ± 0.06				
Cc1ccccc1C [1,2-dimethylbenzene] + CCCCCC[N+]1(C)CCCC1.O=S(=O)([N-]S(=O)(=O)C(F)(F)F)C(F)(F)F					1.28 ± 0.13	1.31 ± 0.13	1.17 ± 0.12
CCCCCCCCCCC [undecane] + CCCCCCCCCC[N+]1(C)CCCC1.O=S(=O)([N-]S(=O)(=O)C(F)(F)F)C(F)(F)F	11.7 ± 1.2	11.2 ± 1.2	10.7 ± 1.1				
Cc1ccccc1 [toluene] + CCCCCC[N+]1(C)CCCC1.O=S(=O)([N-]S(=O)(=O)C(F)(F)F)C(F)(F)F					1.01 ± 0.1	1.04 ± 0.11	1 ± 0.1
C#CCCCC [1-hexyne] + CCCCCCCC[N+]1(C)CCCC1.O=S(=O)([N-]S(=O)(=O)C(F)(F)F)C(F)(F)F				1.57 ± 0.16	1.58 ± 0.16	1.34 ± 0.14	
CCCCCCCCCC [decane] + CCCCCC[N+]1(C)CCCC1.O=S(=O)([N-]S(=O)(=O)C(F)(F)F)C(F)(F)F					19 ± 2	22.7 ± 2.4	26 ± 2.7
CCCC(C)=O [pentan-2-one] + CCCCCC[N+]1(C)CCCC1.O=S(=O)([N-]S(=O)(=O)C(F)(F)F)C(F)(F)F					0.65 ± 0.07	0.66 ± 0.07	0.59 ± 0.06

SMILES	activity coefficient (322.6 K)	activity coefficient (332.5 K)	activity coefficient (342.8 K)	activity coefficient (323 K)	activity coefficient (333 K)	activity coefficient (343.1 K)	activity coefficient (322.9 K)
CC#N [acetonitrile] + CCCCCCCCCC[N+]1(C)CCCC1.O=S(=O)([N-]S(=O)(=O)C(F)(F)F)C(F)(F)F	0.49 ± 0.05	0.5 ± 0.06	0.49 ± 0.05				
Cc1ccccc1 [toluene] + CCCCCCCCCC[N+]1(C)CCCC1.O=S(=O)([N-]S(=O)(=O)C(F)(F)F)C(F)(F)F	0.77 ± 0.08	0.78 ± 0.08	0.8 ± 0.08				
c1ccsc1 [thiophene] + CCCCCC[N+]1(C)CCCC1.O=S(=O)([N-]S(=O)(=O)C(F)(F)F)C(F)(F)F					0.71 ± 0.07	0.72 ± 0.08	0.7 ± 0.07
CCC[N+](=O)[O-] [1-nitropropane] + CCCCCC[N+]1(C)CCCC1.O=S(=O)([N-]S(=O)(=O)C(F)(F)F)C(F)(F)F					0.66 ± 0.07	0.65 ± 0.07	0.66 ± 0.07
CC1CCCCC1 [methylcyclohexane] + CCCCCCCC[N+]1(C)CCCC1.O=S(=O)([N-]S(=O)(=O)C(F)(F)F)C(F)(F)F				4.22 ± 0.44	4.04 ± 0.42	3.9 ± 0.41	
Cc1ccccc1 [toluene] + CCCCCCCC[N+]1(C)CCCC1.O=S(=O)([N-]S(=O)(=O)C(F)(F)F)C(F)(F)F				0.76 ± 0.08	0.78 ± 0.08	0.74 ± 0.08	
ClC(Cl)(Cl)Cl [tetrachloromethane] + CCCCCCCCCC[N+]1(C)CCCC1.O=S(=O)([N-]S(=O)(=O)C(F)(F)F)C(F)(F)F	1.32 ± 0.14	1.12 ± 0.11	1.31 ± 0.13				
CCC(C)=O [butanone] + CCCCCCCCCC[N+]1(C)CCCC1.O=S(=O)([N-]S(=O)(=O)C(F)(F)F)C(F)(F)F	0.39 ± 0.05	0.37 ± 0.04	0.34 ± 0.04				
c1ccsc1 [thiophene] + CCCCCCCC[N+]1(C)CCCC1.O=S(=O)([N-]S(=O)(=O)C(F)(F)F)C(F)(F)F				0.57 ± 0.06	0.55 ± 0.06	0.53 ± 0.06	
CCc1ccccc1 [ethylbenzene] + CCCCCCCC[N+]1(C)CCCC1.O=S(=O)([N-]S(=O)(=O)C(F)(F)F)C(F)(F)F				1.03 ± 0.1	0.98 ± 0.1	1.04 ± 0.11	
CC1CCCC1 [methylcyclopentane] + CCCCCC[N+]1(C)CCCC1.O=S(=O)([N-]S(=O)(=O)C(F)(F)F)C(F)(F)F					4.52 ± 0.47	4.76 ± 0.5	4.9 ± 0.51
CCO [ethanol] + CCCCCCCCCC[N+]1(C)CCCC1.O=S(=O)([N-]S(=O)(=O)C(F)(F)F)C(F)(F)F	1.46 ± 0.15	1.34 ± 0.14	1.22 ± 0.13				
CCCCCC [hexane] + CCCCCCCC[N+]1(C)CCCC1.O=S(=O)([N-]S(=O)(=O)C(F)(F)F)C(F)(F)F				5.01 ± 0.53	4.8 ± 0.5	4.05 ± 0.43	
Cc1ccccc1C [1,2-dimethylbenzene] + CCCCCCCCCC[N+]1(C)CCCC1.O=S(=O)([N-]S(=O)(=O)C(F)(F)F)C(F)(F)F	0.92 ± 0.09	0.94 ± 0.1	0.96 ± 0.1				
ClCCl [dichloromethane] + CCCCCCCCCC[N+]1(C)CCCC1.O=S(=O)([N-]S(=O)(=O)C(F)(F)F)C(F)(F)F	0.27 ± 0.04	0.3 ± 0.04	0.3 ± 0.04				
C=CCCCC [hex-1-ene] + CCCCCC[N+]1(C)CCCC1.O=S(=O)([N-]S(=O)(=O)C(F)(F)F)C(F)(F)F					4.63 ± 0.49	4.44 ± 0.47	4.56 ± 0.48
c1ccccc1 [benzene] + CCCCCCCCCC[N+]1(C)CCCC1.O=S(=O)([N-]S(=O)(=O)C(F)(F)F)C(F)(F)F	0.62 ± 0.07	0.63 ± 0.07	0.64 ± 0.07				
CCCCCCCC [octane] + CCCCCCCC[N+]1(C)CCCC1.O=S(=O)([N-]S(=O)(=O)C(F)(F)F)C(F)(F)F				8.1 ± 0.85	7.8 ± 0.82	6.54 ± 0.69	
ClC(Cl)Cl [trichloromethane] + CCCCCC[N+]1(C)CCCC1.O=S(=O)([N-]S(=O)(=O)C(F)(F)F)C(F)(F)F					0.72 ± 0.08	0.74 ± 0.08	0.68 ± 0.07
Cc1ccc(C)cc1 [1,4-dimethylbenzene] + CCCCCCCCCC[N+]1(C)CCCC1.O=S(=O)([N-]S(=O)(=O)C(F)(F)F)C(F)(F)F	1 ± 0.1	1.01 ± 0.1	1.03 ± 0.1				
